Measured values: patent publication US20150291565A1, “INDOLE COMPOUNDS AND THEIR USE AS ANTIMICROBIALS” (Memorial Sloan-Kettering Cancer Center, priority 2012, published 2015)
Values joined by “and” are separate entries in the source; they are usually repeats but may differ in a detail not shown here. Equal entries are not always repeated.

Tests used:
[1] = system: S. aureus (MRSA) (ATCC33591); experiment: Septicemia survival model in neutropenic CD1 mice, MRSA; format: in vivo; conditions: 100 mg/kg BID SC
[2] = system: S. pneumoniae (ATCC 6303); experiment: Thigh infection model in neutropenic CD1 mice, S. pneumoniae; conditions: 100 mg/kg BID SC, 24 hours; for Log reduction: vs vehicle, 100 mg/kg
[3] = system: methicillin-resistant S. aureus (ATCC 33591); experiment: Thigh infection model in neutropenic CD1 mice, MRSA; conditions: 100 mg/kg BID SC, 24 hours

CN[C@H](CC(C)C)C(=O)N[C@H]1C(=O)N[C@@H](CC(N)=O)C(=O)N[C@H]2C(=O)N[C@H]3C(=O)N[C@H](C(=O)N[C@H](C(=O)O)c4cc(O)cc(O)c4-c4cc3ccc4O)[C@H](O)c3ccc(c(Cl)c3)Oc3cc2cc(c3O[C@@H]2O[C@H](CO)[C@@H](O)[C@H](O)[C@H]2O[C@H]2C[C@](C)(N)[C@H](O)[C@H](C)O2)Oc2ccc(cc2Cl)[C@H]1O [Vancomycin, reference compound]
Percent Survival Day 1 [1]: 100% | Percent Survival Day 2 [1]: 100% | Percent Survival Day 3 [1]: 100% | Percent Survival Day 4 [1]: 80% | Percent Survival Day 5 [1]: 80% | Percent Survival Day 6 [1]: 80% | Percent Survival Day 7 [1]: 80% | Mean bacterial tissue burden (log10/thigh) [2]: 3.4862 log10/thigh | Log reduction [2]: 5.6265 Log | Log reduction ([2]; listed as vancomycin): 5.63 Log | Mean bacterial tissue burden (log10/thigh) [3]: 5.0033 log10/thigh | Log reduction ([3]; vs vehicle, 100 mg/kg): 3.45 Log and 3.4455 Log
